Data on eight molecules can be found in ChEMBL document CHEMBL1201862, “PubChem BioAssay data set” (2004).

Some test systems named below: OVCAR-4; UACC-62; UACC-257; NCI-H460; SK-OV-3; HL-60; MOLT-4; HCT-15; K562; RPMI-8226; ACHN; U-251; A549; SK-MEL-5; CCRF-CEM; LOX IMVI; EKVX; SNB-75; Malme-3M.
What all share (assay): NCI-60 cell line screen, 48 h

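Test compounds were applied to cells in 96-well plates for 48 hours at 5 doses. Abbreviation: GI50, concentration required for 50% inhibition of growth.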 Activity calls are given as the source filed them. Rule as the data show it: active = GI50 up to about 1.1 µM and inactive = higher. A value given as a limit tells only on which side of the number the result lay.

For `O=C1CCC2COc3ccc(O)c1c32` (stereo unspecified), the GI50 in the experiment on OVCAR-4, with UACC-62, with UACC-257, in the experiment with NCI-H460, with SK-OV-3 and in the experiment with HL-60 was > 100 µM (inactive) each time. In addition, the GI50 with MOLT-4 was > 100 µM (inactive); with HCT-15, more than 100 µM; in the experiment with K562, > 100 µM (inactive); in the experiment on RPMI-8226 it was > 100 µM (inactive); in the experiment on ACHN, > 100 µM (inactive); in the experiment on U-251, > 100 µM (inactive). The GI50 is > 100 µM (inactive) in the experiment with A549; > 100 µM (inactive) in the experiment with SK-MEL-5; > 100 µM (inactive) with CCRF-CEM; > 100 µM (inactive) in the experiment on LOX IMVI; 51.2 µM (inactive) in the experiment with EKVX; 77.6 µM (inactive) with SNB-75.
With `O=c1c2ccccc2nc(-c2ccc(Br)cc2)n1NC1OC(CO)C(O)C(O)C1O` (stereo unspecified), the GI50 with Malme-3M is > 100 µM (inactive); in the experiment with OVCAR-4, 42 µM (inactive); in the experiment on UACC-62 it was 79.6 µM (inactive); in the experiment with UACC-257, > 100 µM (inactive); with NCI-H460, > 100 µM (inactive); in the experiment on SK-OV-3, > 100 µM (inactive). Further, the GI50 in the experiment on HL-60 is 34.1 µM (inactive); in the experiment with MOLT-4, 31.6 µM (inactive); in the experiment with HCT-15, more than 100 µM; in the experiment on K562, 43.6 µM (inactive); with RPMI-8226, 72.9 µM (inactive); in the experiment with ACHN, > 100 µM (inactive). In addition, the GI50 in the experiment on U-251 was > 100 µM (inactive); with A549, > 100 µM (inactive); in the experiment on SK-MEL-5 it was 75.9 µM (inactive); in the experiment on CCRF-CEM, 32.8 µM (inactive); in the experiment on EKVX, 78.3 µM (inactive); with SNB-75, 80.5 µM (inactive).
As for `COc1ccc(OCC(C)(C)O)cc1`, the GI50 with Malme-3M is > 100 µM (inactive); in the experiment with OVCAR-4, > 62.8 µM (inactive); in the experiment on UACC-62 it was > 100 µM (inactive); with UACC-257, > 100 µM (inactive); in the experiment with NCI-H460, > 100 µM (inactive); with SK-OV-3, > 100 µM (inactive). The GI50 with HL-60 is > 100 µM (inactive); with MOLT-4 it was > 100 µM (inactive); in the experiment on HCT-15 it was more than 100 µM; in the experiment on K562, > 100 µM (inactive); in the experiment with RPMI-8226 it was > 100 µM (inactive); in the experiment on U-251, > 100 µM (inactive). The GI50 is > 100 µM (inactive) in the experiment on A549; > 100 µM (inactive) in the experiment on SK-MEL-5; > 100 µM (inactive) with CCRF-CEM; > 100 µM (inactive) with LOX IMVI; > 100 µM (inactive) with EKVX; > 47 µM (inactive) in the experiment with SNB-75.
For `C(=C\c1csnn1)/c1cccnc1`, the GI50 in the experiment on Malme-3M, in the experiment on OVCAR-4, in the experiment with UACC-257, in the experiment with NCI-H460, in the experiment on SK-OV-3 and in the experiment with HL-60 was > 100 µM (inactive) each time. For the same molecule, the GI50 is > 100 µM (inactive) with MOLT-4; more than 100 µM in the experiment with HCT-15; > 100 µM (inactive) in the experiment with K562; > 100 µM (inactive) with RPMI-8226; > 100 µM (inactive) with ACHN; > 100 µM (inactive) in the experiment on U-251. Also, the GI50 in the experiment on A549, in the experiment on LOX IMVI, in the experiment with EKVX and in the experiment on SNB-75 was > 100 µM (inactive) each time.
For `Cc1nc2ccc(S(=O)(=O)Nc3nccs3)cc2c(=O)n1NS(=O)(=O)c1nccs1`, the GI50 with Malme-3M is > 100 µM (inactive); in the experiment with OVCAR-4 it was > 100 µM (inactive); with UACC-62, 72.9 µM (inactive); in the experiment on UACC-257, > 100 µM (inactive); with NCI-H460 it was 50.2 µM (inactive); with SK-OV-3, > 100 µM (inactive). The GI50 was 79.1 µM (inactive) in the experiment with HL-60; 28.5 µM (inactive) in the experiment with MOLT-4; more than 100 µM with HCT-15; 69.7 µM (inactive) in the experiment with K562; > 100 µM (inactive) with RPMI-8226; 32 µM (inactive) in the experiment with ACHN. Also, the GI50 is > 100 µM (inactive) in the experiment with U-251; 88.7 µM (inactive) in the experiment with SK-MEL-5; 86.7 µM (inactive) with CCRF-CEM; > 100 µM (inactive) in the experiment with EKVX; > 100 µM (inactive) in the experiment with SNB-75.
Take `Cc1ccccc1N1C(=O)C2C=CC(n3[nH]c(=O)n(Cc4ccccc4)c3=O)CC2C1=O` (stereo unspecified): the GI50 in the experiment on Malme-3M, in the experiment on UACC-62, with UACC-257, with NCI-H460, in the experiment on SK-OV-3 and in the experiment on HL-60 was > 100 µM (inactive) each time. For the same molecule, the GI50 was > 100 µM (inactive) in the experiment on MOLT-4; more than 100 µM in the experiment on HCT-15; > 100 µM (inactive) in the experiment with K562; > 100 µM (inactive) in the experiment on RPMI-8226; > 100 µM (inactive) with ACHN; > 100 µM (inactive) with U-251. Besides, the GI50 in the experiment with A549 is > 100 µM (inactive); in the experiment with SK-MEL-5 it was > 100 µM (inactive); in the experiment with CCRF-CEM, > 100 µM (inactive); in the experiment with LOX IMVI, > 100 µM (inactive); in the experiment on EKVX, > 100 µM (inactive); in the experiment on SNB-75, 70 µM (inactive).
In the case of `Cc1ccc(N2Cc3c(ccc4ccccc34)OP2(=O)Oc2ccc(Cl)c(C)c2)cc1` (stereo unspecified), the GI50 in the experiment with Malme-3M is > 100 µM (inactive); with OVCAR-4, > 100 µM (inactive); in the experiment with UACC-62 it was > 100 µM (inactive); in the experiment with UACC-257 it was > 100 µM (inactive); in the experiment on NCI-H460, 67.5 µM (inactive); in the experiment with SK-OV-3, > 100 µM (inactive). Besides, the GI50 in the experiment on HL-60 is > 100 µM (inactive); in the experiment with MOLT-4 it was 14.2 µM (inactive); in the experiment on HCT-15 it was 13.8 µM; in the experiment with K562, > 100 µM (inactive); in the experiment with RPMI-8226, 10 µM (inactive); in the experiment with U-251, > 100 µM (inactive). In addition, the GI50 in the experiment with A549 was > 94.6 µM (inactive); with SK-MEL-5, > 100 µM (inactive); in the experiment with CCRF-CEM, > 93.3 µM (inactive); in the experiment with LOX IMVI, > 100 µM (inactive); in the experiment on EKVX, > 100 µM (inactive); in the experiment on SNB-75, > 100 µM (inactive).
As for `C=C1CCC2[C@@H](CCC3[C@]2(C)CCC[C@]3(C)C(=O)OC)C1CCO` (stereo partly specified), the GI50 was 14.9 µM (inactive) with Malme-3M; 12.8 µM (inactive) in the experiment on OVCAR-4; 11.2 µM (inactive) with UACC-62; 5.98 µM (inactive) in the experiment on UACC-257; 6.49 µM (inactive) in the experiment with NCI-H460; 29.3 µM (inactive) with SK-OV-3. In addition, the GI50 was 4.02 µM (inactive) in the experiment with HL-60; 4 µM (inactive) with MOLT-4; 11.2 µM in the experiment with HCT-15; 6 µM (inactive) in the experiment on K562; 3.12 µM (inactive) with RPMI-8226; 14.8 µM (inactive) in the experiment with ACHN. The GI50 is 11.1 µM (inactive) in the experiment on U-251; 14.4 µM (inactive) in the experiment on A549; 4.53 µM (inactive) in the experiment on SK-MEL-5; 10.5 µM (inactive) with CCRF-CEM; 20.5 µM (inactive) in the experiment on EKVX; 7.46 µM (inactive) with SNB-75.
